The conditions of this data set: on exposure to air; "stable" = non-hygroscopic, does not pick up moisture even in a highly humid atmosphere. The text has this: According to another aspect of the present invention, there is provided anhydrous bosentan.

`COc1ccccc1Oc1c(NS(=O)(=O)c2ccc(C(C)(C)C)cc2)nc(-c2ncccn2)nc1OCCO` [Form B, Bosentan Form B]: the “stability / hygroscopicity (moisture pick-up)” value was “stable and non-hygroscopic”.

These data come from patent publication US8481730B2, “Method of synthesis of Bosentan, its polymorphic forms and its salts” (CIPLA Limited, priority 2008, dated 2013).
